For test [1], the target named is T1, HtrA1 FL (Homo sapiens, UniProt Q92743).
T1 construct: HtrA1 (Q23-P480, 5654, Tni Baculovirus); made in house; host or cells: Trichoplusia ni (Tni) cells, baculovirus
The format is binding. To be noted: Biacore S200, 25°C; biotinylated HtrA1 FL on chip SA; 10 mM HEPES (8.0), 200mM NaCl, 0.25% CHAPS, 5% DMSO; steady state fitting; n/d = no binding; read-out: Kd(μM) SPR. (In general: In SPR one partner is held on a chip, and binding of the other changes the refractive index at the surface.)

The next test deals with HtrA1. The format is binding, human. To be noted: ratio of signal for target protein over BSA background.
The target of test [2] is T1, HtrA1 FL. The experiment in a line: HtrA1 enzyme assay with substrate H2-OPT. The test is classed as biochemical. To be noted: 20 μM DCP, 1 nM HtrA1, 5 μM H2-OPT, 15 min pre-incubation, 37°C, pH 8.0, 0.1% DMSO; average of three independent experiments (Fig 3B). Here is the method:
Human full-length HtrA1 (HtrA1 FL) was expressed in Trichoplusia ni cells and purified as described. Enzyme assays with the fluorescence-quenched synthetic substrate Mca-[…](Dnp)KK (H2-OPT) were carried out essentially as described (Eigenbrot 2012). DCP stock solutions in DMSO were diluted in 50 mM Tris-HCl, pH 8.0, 200 mM NaCl, 0.25% CHAPS (assay buffer) and incubated with HtrA1 in 96-well black optical bottom plates for 15 min at 37°C. A 10 mM stock solution of H2-OPT in DMSO was diluted with water, prewarmed at 37°C and then added to the DCP-enzyme mixtures. The final concentrations in the reaction mixtures were: 1 nM HtrA1, 20 μM DCP, 5 μM H2-OPT, 0.1% DMSO. Substrate cleavage was measured at 37°C on a SPECTRAmax M5 microplate reader (Molecular Devices) and the initial rates of cleavage determined. […] The enzyme activities were expressed as percent of control values (without DCP). The determined values represent the average ± S.D. of three independent experiments.

For a further test, the system named is Notch 2. Put plainly: Phage competition ELISA on Notch 2. The format is binding, human. As to conditions: N2L_EET03 peptide against N2L_EET31 displaying phage (Fig 5C). From the text: Subsequently, we selected another primary hit, N2L.EET31, for affinity maturation as outlined in Fig 5A with improved outcome. Despite displaying a weak ELISA signal, N2L.EET31 was identified as the most abundant sequence by NGS analysis (56.6% in round 4). […] Due to these observations, N2L.EET31 was selected as another candidate for affinity maturation. An NNK-walking experiment (described in the methods section) provided valuable information on the functional importance of individual loop residues. […] These residues are either crucial for binding or play a critical role in overall peptide folding. […] Based on this information, we designed hard randomization libraries for Loop 2 and Loop 3_4 as part of the second generation of affinity maturation.
On the technique in general: An ELISA detects its analyte on a solid surface through an enzyme-linked reagent.

Test [3] has as its target T2, Notch2Long (Notch2 EGF6-EGF12) (Homo sapiens, UniProt Q04721).
T2 construct: Biotinylated N2L protein (D219–E418, made in-house); His tag (cleaved yes); made in house; host or cells: CHO
T2 sequence (Q04721 219-418): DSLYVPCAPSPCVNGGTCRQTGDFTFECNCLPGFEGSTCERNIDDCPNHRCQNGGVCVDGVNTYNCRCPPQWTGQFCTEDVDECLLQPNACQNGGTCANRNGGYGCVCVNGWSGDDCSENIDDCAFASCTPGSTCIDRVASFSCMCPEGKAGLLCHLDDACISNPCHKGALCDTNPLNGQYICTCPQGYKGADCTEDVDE
The experiment in a line: SPR binding of synthetic DCPs to Notch2Long. To be noted: Biacore S200, 25°C, 50 μL/min; synthetic in vitro folded peptide, 3-fold dilution from 100 μM; biotinylated N2L on chip SA; steady state fitting; at least three independent experiments; n/d = no binding. Here is the method: (§1) All binding experiments were performed using a Biacore S200 instrument (GE Healthcare) at 25°C at a flow rate of 50 μL/min. The kinetics and affinity measurements were carried out using either single-cycle or multi-cycle kinetics (SCK or MCK), solvent corrected and referenced by subtracting the signal to the blank flow cell. Binding affinity and kinetic parameters (association and dissociation rate constants, and dissociation equilibrium constant) were calculated with the Biacore S200 Evaluation Software (version 1.1.1, Cytiva) using either a 1:1 binding model or a steady-state equilibrium model (according to the manufacturer’s instructions).
(§2) Biotinylated N2L protein (D219–E418, made in-house) and NRR protein (A1423–Q1677, made in-house) were captured at around 500, 1000 and 1500 RU on Sensor Chip SA (Cytiva).

Another test relates to Notch2Long. Put plainly: Spot phage ELISA, Notch2Long. As to conditions: Table 3, affinity maturation clones. The format is binding, human.
A further test concerns Notch2NRR. The experiment in a line: Spot phage ELISA, Notch2NRR. The format is binding, human. As to conditions: ratio of signal for target protein over BSA background.
Test [4] has as its target T3, Notch2NRR (Notch2 NRR domain) (Homo sapiens, UniProt Q04721).
T3 construct: NRR protein (A1423–Q1677, made in-house); His tag (cleaved yes); made in house; host or cells: CHO
T3 sequence (Q04721 1423-1677): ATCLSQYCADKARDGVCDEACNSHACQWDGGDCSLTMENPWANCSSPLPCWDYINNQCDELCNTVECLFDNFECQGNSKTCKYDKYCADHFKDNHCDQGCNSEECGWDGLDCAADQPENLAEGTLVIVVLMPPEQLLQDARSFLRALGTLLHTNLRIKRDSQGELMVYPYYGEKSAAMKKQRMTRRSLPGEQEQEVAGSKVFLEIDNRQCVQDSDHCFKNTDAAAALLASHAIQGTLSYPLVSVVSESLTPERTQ
The experiment in a line: SPR binding of synthetic DCPs to Notch2NRR. As to conditions: Biacore S200, 25°C; synthetic folded peptide, 3-fold dilution from 100 μM; biotinylated NRR on chip SA; steady state fitting. As for the experimental part:
as §1, §2

A further test concerns BamA-amphipol. Put plainly: Spot phage ELISA, BamA-amphipol. The format is binding, bacterial.

Where a SMILES comes first, the peptide text is derived from it. Where no end group is shown, it is not given here.

Consider five compounds from publication PMC10977697 (PLOS ONE, 2024).

T1 sequence (Q92743 23-480): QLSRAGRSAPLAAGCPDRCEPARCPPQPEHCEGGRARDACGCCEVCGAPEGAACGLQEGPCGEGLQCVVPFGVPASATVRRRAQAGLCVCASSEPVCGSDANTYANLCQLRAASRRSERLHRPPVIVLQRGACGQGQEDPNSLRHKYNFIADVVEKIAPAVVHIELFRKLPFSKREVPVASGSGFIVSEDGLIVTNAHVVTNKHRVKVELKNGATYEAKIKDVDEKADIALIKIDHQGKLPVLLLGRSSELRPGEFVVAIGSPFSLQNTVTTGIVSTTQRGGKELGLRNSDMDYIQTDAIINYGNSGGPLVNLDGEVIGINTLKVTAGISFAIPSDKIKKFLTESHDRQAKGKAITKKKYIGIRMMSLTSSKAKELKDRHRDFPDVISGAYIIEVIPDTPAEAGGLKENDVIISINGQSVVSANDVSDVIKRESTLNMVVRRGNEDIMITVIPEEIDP

For orientation: Kd means the free concentration of one partner at which half of the binding sites on the other are occupied at equilibrium, for simple one-to-one binding. Turning to `CC[C@H](C)[C@@H]1NC(=O)[C@H](CCC(N)=O)NC(=O)[C@H](CCCNC(=N)N)NC(=O)[C@H](C(C)C)NC(=O)[C@@H]2CSSC[C@H](NC(=O)[C@H](CC(=O)O)NC(=O)[C@H](Cc3ccccc3)NC(=O)[C@H](C)N)C(=O)N[C@@H](CC(C)C)C(=O)NCC(=O)N[C@@H](CCC(N)=O)C(=O)N[C@H]3CSSC[C@H](NC(=O)[C@H](Cc4ccc(O)cc4)NC(=O)[C@H](Cc4c[nH]cn4)NC(=O)[C@H](CO)NC(=O)[C@H](CC(C)C)NC(=O)[C@H](CC(N)=O)NC(=O)[C@H]([C@@H](C)CC)NC(=O)[C@H](C(C)C)NC(=O)[C@H](CCCNC(=N)N)NC(=O)[C@H](Cc4c[nH]c5ccccc45)NC(=O)[C@H](C(C)C)NC1=O)C(=O)N[C@@H](CC(N)=O)C(=O)N[C@@H](CO)C(=O)N[C@@H](CO)C(=O)N[C@H](C(=O)N[C@H](C(=O)N[C@@H](CCCNC(=N)N)C(=O)O)[C@@H](C)O)CSSC[C@H](NC(=O)[C@H](CCCNC(=N)N)NC(=O)CNC3=O)C(=O)N[C@@H](CC(=O)O)C(=O)N[C@@H](Cc1ccccc1)C(=O)N[C@@H](Cc1c[nH]cn1)C(=O)N[C@@H](CCCCN)C(=O)N[C@@H](CC(C)C)C(=O)N[C@@H](CCC(N)=O)C(=O)N2` [HtrA1_AVR62] (HELM PEPTIDE1{A.F.D.C.L.G.Q.C.G.R.C.D.F.H.K.L.Q.C.V.R.Q.I.V.W.R.V.I.N.L.S.H.Y.C.N.S.S.C.T.R}$PEPTIDE1,PEPTIDE1,4:R3-18:R3|PEPTIDE1,PEPTIDE1,8:R3-33:R3|PEPTIDE1,PEPTIDE1,11:R3-37:R3$$$V2.0; N-terminus and C-terminus assumed), the Kd at HtrA1 FL [1] is above 15 µM. The S/N in the test with HtrA1 was 19.5. The “inhibition of HtrA1 activity” value against HtrA1 FL [2] is given as “more than 75%”.
With `CC[C@H](C)[C@@H]1NC(=O)[C@@H](NC(=O)CN)CSSC[C@@H]2NC(=O)CNC(=O)[C@H](C)NC(=O)[C@H](CC(C)C)NC(=O)[C@@H]3CSSC[C@@H](C(=O)NCC(=O)O)NC(=O)[C@H](CCC(N)=O)NC(=O)[C@H]([C@@H](C)CC)NC(=O)[C@H](Cc4c[nH]c5ccccc45)NC(=O)[C@H](C(C)C)NC(=O)[C@H](CCC(=O)O)NC(=O)[C@H](CSSC[C@H](NC(=O)[C@H](Cc4c[nH]c5ccccc45)NC(=O)[C@H](CC(C)C)NC(=O)[C@H](Cc4c[nH]cn4)NC(=O)[C@H](CO)NC(=O)[C@H](CCCCN)NC1=O)C(=O)N[C@@H](CCCCN)C(=O)N[C@@H](CCC(N)=O)C(=O)N[C@@H](CC(=O)O)C(=O)N[C@@H](CO)C(=O)N[C@@H](CC(=O)O)C(=O)N3)NC(=O)[C@H](C(C)C)NC2=O` [N2L.EET31] (HELM PEPTIDE1{G.C.I.K.S.H.L.W.C.K.Q.D.S.D.C.L.A.G.C.V.C.E.V.W.I.Q.C.G}$PEPTIDE1,PEPTIDE1,2:R3-19:R3|PEPTIDE1,PEPTIDE1,9:R3-21:R3|PEPTIDE1,PEPTIDE1,15:R3-27:R3$$$V2.0; N-terminus and C-terminus assumed), in the test with Notch 2, the “competition in phage competition ELISA” value is recorded as “exhibited competition with N2L.EET03”. For the same compound, in test [3], the Kd is above 100 µM. Moreover, the “s/n ratio” value in the test on Notch2Long (signal over BSA background) came to 0.4. Further, the ELISA with Notch2Long (spot phage ELISA signal, display (p8 or p3) not given per clone) is 0.1.
Take `CC(C)C[C@@H]1NC(=O)[C@@H](NC(=O)[C@H](CC(=O)O)NC(=O)[C@H](Cc2ccccc2)NC(=O)[C@H](C)N)CSSC[C@@H]2NC(=O)[C@H](CCC(N)=O)NC(=O)[C@H](CC(C)C)NC(=O)[C@H](CCCCN)NC(=O)[C@H](Cc3c[nH]cn3)NC(=O)[C@H](Cc3ccccc3)NC(=O)[C@H](CC(=O)O)NC(=O)[C@@H]3CSSC[C@@H](C(=O)N[C@H](C(=O)N[C@@H](CCCNC(=N)N)C(=O)O)[C@@H](C)O)NC(=O)[C@H](CO)NC(=O)[C@H](CO)NC(=O)[C@H](CC(N)=O)NC(=O)[C@H](CSSC[C@H](NC(=O)[C@H](CCC(N)=O)NC(=O)CNC1=O)C(=O)NCC(=O)N[C@@H](CCCNC(=N)N)C(=O)N3)NC(=O)[C@H](Cc1ccc(O)cc1)NC(=O)[C@H](CCC(N)=O)NC(=O)[C@H](CCCCN)NC(=O)[C@H](Cc1ccc(O)cc1)NC(=O)[C@H]([C@@H](C)O)NC(=O)[C@H](Cc1c[nH]c3ccccc13)NC(=O)[C@H](CO)NC(=O)[C@H](Cc1ccc(O)cc1)NC(=O)[C@@H]1CCCN1C(=O)[C@H](C(C)C)NC2=O` [N2N-AVR-19] (HELM PEPTIDE1{A.F.D.C.L.G.Q.C.G.R.C.D.F.H.K.L.Q.C.V.P.Y.S.W.T.Y.K.Q.Y.C.N.S.S.C.T.R}$PEPTIDE1,PEPTIDE1,4:R3-18:R3|PEPTIDE1,PEPTIDE1,8:R3-29:R3|PEPTIDE1,PEPTIDE1,11:R3-33:R3$$$V2.0; N-terminus and C-terminus assumed): the s/n ratio in the test on Notch2NRR is given as 35.7. In test [4], the Kd turned out to be 9.4 µM.
For `CC(C)C[C@@H]1NC(=O)[C@@H](NC(=O)[C@H](CC(=O)O)NC(=O)[C@H](Cc2ccccc2)NC(=O)[C@H](C)N)CSSC[C@@H]2NC(=O)[C@H](CCC(N)=O)NC(=O)[C@H](CC(C)C)NC(=O)[C@H](CCCCN)NC(=O)[C@H](Cc3c[nH]cn3)NC(=O)[C@H](Cc3ccccc3)NC(=O)[C@H](CC(=O)O)NC(=O)[C@@H]3CSSC[C@@H](C(=O)N[C@H](C(=O)N[C@@H](CCCNC(=N)N)C(=O)O)[C@@H](C)O)NC(=O)[C@H](CO)NC(=O)[C@H](CO)NC(=O)[C@H](CC(N)=O)NC(=O)[C@H](CSSC[C@H](NC(=O)[C@H](CCC(N)=O)NC(=O)CNC1=O)C(=O)NCC(=O)N[C@@H](CCCNC(=N)N)C(=O)N3)NC(=O)[C@H](Cc1ccc(O)cc1)NC(=O)[C@@H]1CCCN1C(=O)[C@H](CO)NC(=O)[C@H](Cc1c[nH]cn1)NC(=O)[C@H](CCCNC(=N)N)NC(=O)[C@H](CC(N)=O)NC(=O)[C@H](CO)NC(=O)[C@H](Cc1c[nH]c3ccccc13)NC(=O)[C@H](C(C)C)NC2=O` [N2N-AVR-n6] (HELM PEPTIDE1{A.F.D.C.L.G.Q.C.G.R.C.D.F.H.K.L.Q.C.V.W.S.N.R.H.S.P.Y.C.N.S.S.C.T.R}$PEPTIDE1,PEPTIDE1,4:R3-18:R3|PEPTIDE1,PEPTIDE1,8:R3-28:R3|PEPTIDE1,PEPTIDE1,11:R3-32:R3$$$V2.0; N-terminus and C-terminus assumed), in that order: 39.3 and 0.8 µM.
Consider “GCTMWQRLQAKYCKQDSDCLAGCVCHAREKCG (also: bicyclic or more (positions not given here)) [BamA-amphipol EET I-II 1]”, for which the S/N in the test on BamA-amphipol (ratio of signal for target protein over BSA background) is 8.1. The compound further showed an ELISA in the test on BamA-amphipol (spot phage ELISA signal, DCP displayed on M13 p8) of 1.50.
